Data as given in publication PMC7361990, “Molecular Basis for Ser/Thr Specificity in PKA Signaling” (Cells, 2020).

Key:
PKA Cα F187I = molecular target: T1, PKA Cα F187I (Homo sapiens, UniProt P17612, F188I); experiment: Coupled spectrophotometric kinase assay; format: biochemical; conditions: mean ± SD of at least three independent measurements; for Km / kcat: 20 nM kinase with S-Kemptide, 10 nM with T-Kemptide, SD; for kcat/KM: catalytic efficiency
T1 construct: made in house
Description: (§1) To determine the Michaelis-Menten constant (KM) and the turnover number (kcat) of purified PKA Cα wt and the DFG+1 mutants for the peptide substrate Kemptide, a coupled spectrophotometric assay was used. As we were interested in the substrate specificity of the kinase, we tested two different peptide substrates: S-Kemptide (LRRASLG) as a serine substrate and T-Kemptide (LRRATLG) as a threonine substrate (GeneCust, Boynes, France). 50 nM PKA Cα wt were used when measured with T-Kemptide and 20 nM wt, F187I, or F187T when measured with S-Kemptide. In all other assays, the final kinase concentration was 10 nM of the respective kinase. All kinases were measured with a minimum of three independent replicates. The calculated turnover was plotted against the […] and analyzed with GraphPad Prism 8.0 (GraphPad Software, San Diego, CA, USA).

PKA Cα F187T = molecular target: T2, PKA Cα F187T (Homo sapiens, UniProt P17612, F188T); experiment: Coupled spectrophotometric kinase assay; format: biochemical; conditions: mean ± SD of at least three independent measurements; for Km / kcat: 20 nM kinase with S-Kemptide, 10 nM with T-Kemptide, SD; for kcat/KM: catalytic efficiency
T2 construct: made in house
Description: as §1

PKA Cα wt = molecular target: T3, PKA Cα wt (Homo sapiens, UniProt P17612); experiment: Coupled spectrophotometric kinase assay; format: biochemical; conditions: for Km / kcat: 20 nM kinase with S-Kemptide, 50 nM with T-Kemptide, SD; for Km / kcat / kcat/KM: mean ± SD of at least three independent measurements; for kcat/KM: catalytic efficiency
T3 construct: made in house
Description: as §1

PKA = conditions: cited from earlier work
From the text: The PKA C subunit is a classic example for a Ser/Thr kinase with serine specificity and this preference is highly conserved among different species. PKA can select target substrates according to the consensus sequence RRXS*/T*Y, where X is any residue, and Y is a hydrophobic residue.

For “LRRATLG [T-Kemptide, LRRATLG, threonine peptide substrate]”, the Km (PKA Cα F187I) was 19.8 ± 3.3 µM, the kcat (PKA Cα F187I) was 43.0 ± 4.7 s⁻¹ and the kcat/KM (PKA Cα F187I) was 22.1 ± 4.5 ×10^5 M^−1s^−1. For the same substance, the Km (PKA Cα F187T) was 25 ± 3.4 µM, the kcat (PKA Cα F187T) was 37.1 ± 4.5 s⁻¹ and the kcat/KM (PKA Cα F187T) was 14.9 ± 0.6 ×10^5 M^−1s^−1. For the same substance, the Km (PKA Cα wt) was 861 ± 184 µM, the kcat (PKA Cα wt) was 7.5 ± 0.8 s⁻¹ and the kcat/KM (PKA Cα wt) was 0.09 ± 0.02 ×10^5 M^−1s^−1.
With “LRRASLG [S-Kemptide, heptapeptide (LRRASLG), canonical serine substrate of PKA derived from the porcine liver pyruvate kinase]” the Km (PKA Cα F187I) was 92.2 ± 3.8 µM, the kcat (PKA Cα F187I) was 25.4 ± 5.8 s⁻¹ and the kcat/KM (PKA Cα F187I) was 2.8 ± 0.8 ×10^5 M^−1s^−1. For the same substance, the Km (PKA Cα F187T) was 23 ± 3.1 µM, the kcat (PKA Cα F187T) was 15.7 ± 0.3 s⁻¹ and the kcat/KM (PKA Cα F187T) was 6.9 ± 1.2 ×10^5 M^−1s^−1. For the same substance, the Km (PKA Cα wt) was 19.8 ± 3.9 µM, the kcat (PKA Cα wt) was 19.8 ± 1.0 s⁻¹ and the “higher catalytic efficiency (kcat/KM) for the serine substrate peptide compared to T-Kemptide” value (PKA Cα wt; S-Kemptide versus T-Kemptide) was “more than 100 fold”. For the same substance, the kcat/KM (PKA Cα wt) was 10.3 ± 1.7 ×10^5 M^−1s^−1.
In the case of “GRTGRRNSI [peptide derived from PKI with a serine introduced at the P0 position]”, the “higher catalytic efficiency than Kemptide” value (PKA) is listed as “more than 70 fold”.
